Data published in patent US9487551B2, “Small molecule compounds that control mammal-pathogenic nematodes” (California Institute of Technology, priority 2011, dated 2016).
Marks after values point to notes of the source that are not given here.

Assays:
[1] = test system: Several of the tested nematode species; experiment: Retention assay; type: in vivo; details: 1 nM, 1 μM and 1 mM tested
Outline: (§1)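 Sex-separated young adults (isolated at L4) placed equidistant from two 0.6 μL spots (cue vs control) on opposite sides of an E. coli OP50 lawn on NGM; 10 P. redivivus, 14 S. glaseri or 20 C. elegans males per trial. Video recorded 20 min at 1 frame/s; worm-pixel occupancy per region scored as adapted Chemotaxis Index, ≥3 trials averaged.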

[2] = test system: P. redivivus males and females; experiment: Retention assay; type: in vivo; details: only this concentration
Outline: as §1

S. glaseri males = experiment: Retention assay; type: in vivo; details: only this concentration
Outline: as §1

C. elegans males = experiment: Retention assay; type: in vivo
Outline: as §1

C. elegans = experiment: Ascaroside function (Table 12); type: in vivo, Caenorhabditis elegans; details: listed = has this function
Outline: (§2)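 Nematodes are exposed to single ascarosides or mixtures of them. Changes in behavior are then graded, and the label "strong" is reserved for a very strong effect.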

Panagrellus redivivus = experiment: Ascaroside function (Table 12); type: in vivo; details: listed = has this function
Outline: as §2

S. glaseri = experiment: Ascaroside function (Table 12); type: in vivo; details: listed = has this function
Outline: as §2

[3] = test system: Meloidogyne javanica, M. floridensis, M. incognita, M. hapla; experiment: Ascaroside function (Table 12); type: in vivo, Meloidogyne spp.
Experimental: (§3) Ascarosides ascr#10, ascr#16, ascr#18, ascr#20, and ascr#22 were detected in certain species of Meloidogyne plant parasitic nematodes (FIG. 83) and identified using high-resolution mass spectrometry (FIGS. 84-88).
(§4) Various ascarosides and ascaroside blends were administered to various nematodes described below (Table 12). […] A very strong result of affecting nematode behavior is designated in the table as “strong.”

S. feltiae IJs = experiment: Dispersal assay; type: in vivo
Experimental: S. feltiae IJs were washed with MILLI-Q water three times and incubated in 6 cm petri dishes for […] with a small amount (4-5 ml) of MILLI-Q water. Nematodes were placed the following day on a 10.7 g/L agar with 1010 g/cm^2 gel strength (PhytoTechnology Lab. Shawnee Mission, Kans.). Nematode behavior was assayed on multiple plates with internal plate replicates to rule out the possibility that behavior was affected by plate composition. Approximately 300 IJs in 10 μl water were placed on an agar medium and the test compounds or extracts (1-2 μl) were placed into the nematode suspension. Upon absorption (˜15 minutes) of the liquid, the freely moving nematodes were video recorded for 5-10 minutes. Dispersal behavior is temperature and season dependent. During winter, the assay is effective at room temperature (22±1° C.). During summer, the assay requires a temperature controlled environment due to the effects on nematode behavior above 23° C.
Activity-guided fractionation was conducted as reported in Srinivasan et al., Nature 454:1115-18 (2008), which is hereby incorporated by reference in its entirety, with modifications. A total of 33 insect host cadavers (G. mellonella larvae) were placed into 70% EtOH and stored at −20° C. until extraction. […]

[4] = test system: Steinernema riobrave, S. diaprepesi, S carpocapse; experiment: Ascaroside function (Table 12); type: in vivo, Steinernema spp.; details: listed = has this function
Experimental: as §4

[5] = test system: Heterorhabditis bacteriophora, H. zealandica, H. floridensis; experiment: Ascaroside function (Table 12); type: in vivo, Heterorhabditis spp.; details: entries without asterisk
Experimental: as §3, §4

S. feltiae = experiment: Ascaroside function (Table 12); type: in vivo, Steinernema feltiae; details: listed = has this function
Experimental: as §4

[6] = entries with asterisk (predicted)

Row | Compound | preference for ascaroside-conditioned areas [1] | concentration of conditioned regions preferred [2] [mM] | concentration of conditioned regions preferred (S. glaseri males) [mM] | concentration of conditioned regions preferred (C. elegans males) [µM] | Attract Males (C. elegans) | Attract Males (Panagrellus redivivus) | Attract Males (S. glaseri) | predicted function in Meloidogyne species ([3]; alone, in concert, and/or in concert with ascr#9 or other ascarosides) | Dispersal (of dauer larvae, infectious juveniles) [3, 6] | Repel Females/Herm. [3, 6] | dispersal activity in combination with fractions B and C (S. feltiae IJs; ascr#9 40 pmol/μl, ascr#11 1.3 pmol/μL) | dispersal behavior of S. feltiae IJs (S. feltiae IJs; tested alone, physiologically relevant concentration) | Dispersal (of dauer larvae, infectious juveniles) [4] | Dispersal (of dauer larvae, infectious juveniles) [5] | Dispersal (of dauer larvae, infectious juveniles) (S. feltiae) | Dispersal (of dauer larvae, infectious juveniles) ([3]; entries without asterisk) | Repel Females/Herm. ([3]; entries without asterisk)
1 | CC1O[C@@H](O[C@H](C)CCCCCCC(=O)O)C(O)C[C@H]1O (some centres unmarked) [ascr#10] | preferred areas conditioned | 1 | 1 | 1 | ascr#10 | ascr#10 | ascr#10 | act as dispersants and repellants | ascr#10* | ascr#10* | – | – | – | – | – | – | –
2 | C[C@H](CCC(=O)O)O[C@@H]1O[C@@H](C)[C@H](O)C[C@H]1O [ascr#9] | preferred areas conditioned | – | – | – | ascr#9 | ascr#9 | – | – | – | – | restored the original dispersal activity | did not have activity by themselves | ascr#9 | ascr#9 | ascr#9 | ascr#9 | ascr#9
